Reference: patent US20200087625A1, “METHODS FOR ISOLATING, EXPANDING AND ADMINISTERING CANCER SPECIFIC CD8+ T CELLS” (priority 2017, published 2020)

Columns and labels:
[1] = system: 4T1 cells; experiment: Spontaneous lung metastasis model, orthotopic 4T1 breast cancer; format: in vivo, BALB/c mice
Protocol: FIGS. 22A-22C. Systemic administration of 1V270 inhibits lung metastasis in the 4T1 murine syngeneic breast cancer model in a CD8^+ T cell dependent manner. (A) Protocol of spontaneous metastasis model. 4T1 cells (5×10^5) were inoculated in both 4th mammary pads of Balb/c mice (n=13/group) 1V270 (20, 80, 04 200 μg/injection) was administered on days 7, 10, 14, 17, 21 and 24. (B) The numbers of lung nodules were counted by staining with India ink after harvesting lungs on day 27. (C) The mice (n=6-15/group) were orthotopically implanted with 4T1 cells and i.p. treated with 1V270 (20 μg/injection) as shown in FIG. 1A. CD8^+ cells were depleted by administration of anti-CD8 or isotype mAbs on days 5, 8, 11, 16, 19, and 23. The numbers of lung nodules were counted on day 27. Each dot indicates an individual mouse and horizontal and vertical bars indicate means±SEM. Data shown are pooled from 2 independent experiments. *P<0.05, **P<0.01 by Kruskal-Wallis test with Dunn's post hoc test comparing treatment groups against vehicle group. n.s; statistically not significant.
FIGS. 28A-28C. […] Tumor growth was measured with a caliper and calculated using the formula: volume (mm^3)=(width)^2×length/2. […]
In the spontaneous metastasis model, othotopically implanted tumor cells spontaneously form lung metastases within three weeks after implantation. […] Tumor length and width were recorded, and tumor volumes were calculated using the formula: volume (mm^3)=(width)^2×length/2. […] On day 21, mice were euthanized and tumor nodules in lungs were counted as described above. […] Tumor length and width were recorded, and tumor volumes were calculated similar with
4T1 cells (5×10^5) were inoculated into the 4th mammary pads on day 0, and 1V270 (20, 80, or 200 μg/injection) was injected intraperitoneally (i.p.) twice a week for three weeks, starting on day 7 (FIG. 22A). Both the primary tumor volumes and the numbers of lung metastases were evaluated on day 27. […]

[2] = system: LLC-GLF cells; experiment: IV metastasis model of Lewis lung carcinoma (LLC); format: in vivo, mice; conditions: systemic 1V270 day -1
Protocol: (§1) FIGS. 27A-27D. […] Therapeutic effects of 1V270 were evaluated in IV metastatic models of 816 melanoma (A, B) and LLC (C, D). BG-albino mice (n=B-10) (A, C), C57BL6 wild type mice (n=15-20) (B and D), were i.p. administered with 200 μg 1V270 or vehicle!iNext day, 5×10^5 B16-GLF cells (A) or 1×10^5 LLC-GLF cells (c) were i.v. administered (A,C). The tumor signals were quantified by IVIS at day 14. […] (B,D) The mice were monitored daily and were euthanized upon reaching the criteria according to UCSD IACUC guidelines. The survival data were analyzed by Log-Rank test. Data were pooled from 2 independent experiments showing similar results and were analyzed by Living Image® software. […] Statistical differences were analyzed by the Mann-Whitney U test comparing 1V270 treatment groups against the vehicle. **P<0.05.
(§2) GFP and luciferase (GLF)-expressing tumor cells (2×10^4 of 4T1-GLF, 5×10^5 of B16-GLF, and […] of LLC-GLF) were i.v. injected into BALB/c mice for 4T1 models, BG-albino or wild-type C57BU6 for B16 melanoma or LLC models). […] Image data were acquired by 1 Ss exposure using the IVIS Spectrum and analyzed using the Living Image software, version 4.5.2 (Perkin Elmer, Waltham, Mass.). We confirmed that the tumor signals in the lungs at day 10 correlated with the number of lung metastasis determined on day 21, as well as the overall survival (Supplemental figures 10). […]

[3] = system: B16-GLF cells; experiment: IV metastasis model of B16 melanoma; format: in vivo, mice; conditions: systemic 1V270 day -1
Protocol: as §1, §2

## CCCCCCCCC=CCCCCCCCC(=O)OCC(COP(=O)(O)OCCNC(=O)c1ccc(Cn2c(=O)[nH]c3c(N)nc(OCCOC)nc32)cc1)OC(=O)CCCCCCCC=CCCCCCCCC (stereo not shown) [1V270]
[1]; 1V270 20, 80 or 200 μg/injection i.p. from day 7
  tumor growth at the primary sites of implantation: did not retard tumor growth at the primary sites of implantation
[1]; 1V270 20, 80 or 200 μg/injection i.p. twice a week for three weeks from day 7, evaluated day 27
  number of lung metastases: decreased the number of lung metastases
[1]; anti-CD8 mAb depletion, 1V270 20 μg/injection i.p.
  numbers of lung nodules after CD8+ cell depletion: increased significantly
[2]; LLC-GLF, day 14
  lung metastasis (IVIS tumor signal): inhibited lung metastasis by day 14
[2]; LLC
  mouse survival: prolonged mouse survival
[3]; B16-GLF, day 14
  lung metastasis (IVIS tumor signal): inhibited lung metastasis by day 14
[3]; B16
  mouse survival: prolonged mouse survival
